In the NIST ThermoML archive (doi:10.1016/j.fluid.2014.05.018):
Where “and” joins values, the source holds several entries; their conditions need not be identical. Identical values can stand only once. Numbers after ± are expanded uncertainties.

Conditions: Liquid, Ebulliometric method (Recirculating still)

Row | SMILES | vapor or sublimation pressure (313.2 K) | vapor or sublimation pressure (333.2 K) | vapor or sublimation pressure (353.2 K) | vapor or sublimation pressure (373.2 K) | vapor or sublimation pressure (403.2 K)
1 | CCO [ethanol] | 18 ± 6 kPa | 50 ± 6 kPa and 47 ± 6 kPa | 110 ± 6 kPa and 108 ± 6 kPa | 225 ± 6 kPa and 224 ± 6 kPa | 585 ± 7 kPa and 572 ± 7 kPa
2 | CCCC [butane] | 379 ± 7 kPa | 645 ± 7 kPa | 1013 ± 8 kPa | 1525 ± 11 kPa | 2660 ± 14 kPa
3 | CC(C)C [2-methylpropane] | 536 ± 7 kPa | 880 ± 8 kPa | 1363 ± 10 kPa | 2014 ± 12 kPa | 3377 ± 16 kPa
